Test results published in US5698547A, “Cephalosporin antibiotics” (Microcide Pharmaceuticals, Inc., priority 1995, dated 1997).
Values joined by “and” are separate entries in the source; they are usually repeats but may differ in a detail not shown here. Equal entries are not always repeated. Structures can show the parent of a compound that is named as a salt. Where two headings read alike, the source gives them in different places.

Legend:
[1] = system: S. aureus Col (Meth^R) (lac^-); assay: MIC by agar dilution, S. aureus Col (Meth^R) (lac^-); type: cell-based; settings: for MIC: agar dilution, S. aureus Col (Meth^R) (lac^-)
Method in brief: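 Log-phase isolates were spot-inoculated at about 10^4 cfu onto Mueller-Hinton agar carrying duplicate two-fold compound levels, 128 μg/mL to ≤0.25 μg/mL, following NCCLS (1991). Plates were read after 16-20 h at 35°-36° C. The lowest growth-inhibiting concentration gave the MIC (μg/ml).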

[2] = system: S. aureus Col8A (Meth^S) (lac^-); assay: MIC by agar dilution, S. aureus Col8A (Meth^S) (lac^-); type: cell-based
Procedure: (§1) The compounds of the invention were evaluated against several β-lactamresistant bacteria strains by determining the minimum inhibitory concentration (MIC, μg/ml) of each compound with respect to each strain. The MIC, the lowest concentration of antibiotic which inhibits growth of the test organism, was determined by the agar dilution method.
(§2) To determine the MIC for bacterial isolates, the test compound was incorporated in a series of two-fold dilutions into liquified Mueller-Hinton agar. Upon solidification, a number of different bacterial strains were spot inoculated with a replicating device onto the agar surface. […] The procedures used in these studies have been standardized by the National Committee for Clinical Laboratory Standards (NCCLS), as per the NCCLS publication entitled METHODS FOR DILUTION ANTIMICROBIAL SUSCEPTIBILITY TESTS (1991), which is incorporated herein by reference.
(§3) Aliquots of antimicrobial agents were prepared in phosphate buffered saline (PBS) at pH 7.2. Tween 20 or DMSO was used as a solubilizing vehicle as needed. Standard methods of vortexing, sonicating and gentle heat were used to facilitate solubilizing the test agent. Typically, the concentration of the stock solution was 10× that of the highest drug concentration tested. A 1.28 mg/mL stock solution was used with a subsequent highest working concentration of 128 μg/mL. Serial two-fold dilutions were done through ≤0.25 μg/mL. Each drug level was tested in duplicate. Two-fold drug dilutions were done in sterile 50 mL tubes with a final drug volume of 5 mL. Upon the addition of 45 mL of molten agar, a 10-fold dilution resulted. Two, 25 mL. plates were then poured into 15×150 mm square Petri plates with grids and allowed to harden.
(§4) A control plate with a reference drug, either cefotaxime, vancomycin or imipenem, was used as the positive growth control. Stock concentrations of reference antibiotics were prepared and frozen at -80° C. Upon preparation, the control plates were sealed and stored in the refrigerator for up to 1 week prior to use; however, imipenem control plates had to be prepared just prior to use. All test plates were used within 24 hours of preparation.
(§5) Satisfactory results were obtained where the inoculum contained about 10^4 colony forming units (cfu) ±0.5 logs. Starting with pure cultures of the test isolates on agar plates, a few isolated colonies were transferred to a tube of nutrient broth and allowed to grow 4-6 hours at 35°-36° C. to reach log-phase growth. Dropwise addition of the broth culture to PBS was done to match a 0.5 McFarland turbidity standard equal to 10^8 cfu/mL. This was further diluted ten-fold in PBS to reach a working inoculum concentration of 10^7 cfu/mL. When 1 μL of the working inoculum was applied to the agar surface a concentration of about 10^4 cfu per spot was obtained.
(§6) Disposable sterile 1 μL loops were used to inoculate test plates, with each isolate in a designated grid on the agar plate. An alternate method of inoculation involved the use of a replica plater, a device with 48 steel pins allowing the simultaneous inoculation of multiple isolates. After the spots had dried, the plates were incubated at 35°-36° C. for 16-20 hours. Endpoints were assessed as the minimum inhibitory concentration (MIC) of antimicrobial agent.
The novel agents of this invention are notable for their enhanced activity against S. aureus Col and Enterococci (E. faecium and E. faecalis). The S. aureus Col strain is a high-level PBP2a producer, whereas S. aureus Col 8A, its isogenic partner, lacks PBP2a. […] Thus, the compounds of the present invention are effective against PBP2a-producing bacteria.

[3] = system: Enterococci (E. faecium and E. faecalis); assay: In vitro antibacterial evaluation, Enterococci; type: cell-based; settings: in words
Procedure: as §1, §2, §3
A control plate with a reference drug, either cefotaxime, vancomycin or imipenem, was used as the positive growth control. […]
(§7) Disposable sterile 1 μL loops were used to inoculate test plates, with each isolate in a designated grid on the agar plate. […] Endpoints were assessed as the minimum inhibitory concentration (MIC) of antimicrobial agent.

[4] = system: methicillin-susceptible S. aureus strain ATCC 13709; assay: murine model for lethal bacteremic peritonitis; type: in vivo, female Swiss-Webster mice; settings: subcutaneous, 72 h
Method in brief: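 Female Swiss-Webster mice challenged IP with an LD100 titer of bacteria in 7% hog gastric mucin; groups of 10 treated SC with twofold drug increments (0.01–512 mg/kg) as two equal doses at challenge and 2 h later. Survival followed for 72 h; PD50 (total mg/kg) calculated by probit method.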

[5] = system: S. aureus strain ATCC 13709; assay: Challenge strain MIC; type: cell-based; settings: Staphylococcus aureus, ATCC13709; S. aureus ATCC 13709; read-out: Challenge str MIC
Procedure: as §1, §2
reported for challenge with methicillin-susceptible S. aureus

[6] = system: MRSA strains; settings: in words, reported; cited from earlier work
[7] = system: S. epidermidis ATCC 31432; assay: MIC by agar dilution, S. epidermidis ATCC 31432; type: cell-based
Procedure: as §1, §2
(§8) Aliquots of antimicrobial agents were prepared in phosphate buffered saline (PBS) at pH 7.2. Tween 20 or DMSO was used as a solubilizing vehicle as needed. Standard methods of vortexing, sonicating and gentle heat were used to facilitate solubilizing the test agent. […]
as §7

[8] = system: P. aeruginosa ATCC 27853; assay: MIC by agar dilution, P. aeruginosa ATCC 27853; type: cell-based
Procedure: as §1, §2, §3, §4, §5, §6

[9] = system: S. aureus ATCC 25923; assay: MIC by agar dilution, S. aureus ATCC 25923; type: cell-based
Procedure: as §1, §2, §8, §7

[10] = system: E. faecium ATCC 35667; assay: MIC by agar dilution, E. faecium ATCC 35667; type: cell-based
Procedure: as §1, §2, §3, §4, §5, §6

[11] = system: S. haemolyticus (Meth^R); assay: MIC by agar dilution, S. haemolyticus (Meth^R); type: cell-based
Procedure: as §1, §2, §3, §4, §5, §6

[12] = system: E. coli ATCC 25922; assay: MIC by agar dilution, E. coli ATCC 25922; type: cell-based
Procedure: as §1, §2, §3, §4, §5, §6

[13] = system: E. faecalis ATCC 29212; assay: MIC by agar dilution, E. faecalis ATCC 29212; type: cell-based
Procedure: as §1, §2, §3, §4, §5, §6

[14] = system: S. aureus 76 (Meth^R) (lac^+); assay: MIC by agar dilution, S. aureus 76 (Meth^R) (lac^+); type: cell-based
Procedure: as §1, §2, §3, §4, §5, §6

O=C(Cc1ccccc1)N[C@@H]1C(=O)N2C(C(=O)O)=C(Sc3ccccc3I)CS[C@H]12 [Cmpd 6, (7R)-7-[(Phenylacetyl)amino]-3-(o-iodophenylthio)-3-cephem-4-carboxylic acid]
activity against S. aureus Col ([1]; in words, PBP2a producer): broad activity | activity against S. aureus Col 8A ([2]; in words, lacks PBP2a): broad activity | activity against Enterococci [3]: broad activity | Mortality ([4]; dose 0.625 mg/kg): 9/10 | Mortality ([4]; dose 1.25 mg/kg): 4/10 | Mortality ([4]; dose 2 mg/kg): 8/10 | Mortality ([4]; dose 2.5 mg/kg): 4/10 | Mortality ([4]; dose 4 mg/kg): 5/10 | Mortality ([4]; dose 5 mg/kg): 1/10 | Mortality ([4]; dose 8 mg/kg): 1/10 | Mortality ([4]; dose 10 mg/kg): 1/10 | Mortality ([4]; dose 16 mg/kg): 0/10

N=C(N)NCCSCC(=O)N[C@@H]1C(=O)N2C(C(=O)O)=C(Sc3ccccc3CSC(=N)N)CS[C@H]12 [Cmpd 137, (7R)-7-[((2-guanidinoethylthio)acetyl)amino]-3-(2-isothiouroniummethylphenylthio)-3-cephem-4-carboxylate, trifluoroacetic acid salt]
MIC [5]: 0.125 µg/mL | MIC ([1]; Staphylococcus aureus, read-out: MIC): 2 µg/mL | Mortality ([4]; dose 0.0391 mg/kg): 8/10 | Mortality ([4]; dose 0.0781 mg/kg): 9/10 | Mortality ([4]; dose 0.1562 mg/kg, trifluoroacetic acid salt): 7/10 and 9/10 | Mortality ([4]; dose 0.3125 mg/kg, trifluoroacetic acid salt): 5/10 and 8/10 | Mortality ([4]; dose 0.625 mg/kg, trifluoroacetic acid salt): 6/10 and 1/10 | Mortality ([4]; dose 1.25 mg/kg): 0/10 | Mortality ([4]; dose 2.5 mg/kg): 0/10 | ED50 ([4]; two equal doses, S. aureus ATCC 13709 IP challenge, trifluoroacetic acid salt, 4320 min): 0.38 mg/kg

C[C@@H](O)[C@H]1C(=O)N2C(C(=O)O)=C(SCCN=CN)C[C@H]12 [imipenem]
activity against MRSA strains [6]: active against a few MRSA strains

(7R)-7-[(Phenylacetyl)amino]-3-(2,3-dihydro-2,2-dimethylbenzofuran-7-yl)-3-cephem-4-carboxylic acid [Cmpd 55]
MIC [7]: < 0.25 µg/mL | MIC [8]: > 32 µg/mL | MIC [9]: < 0.25 µg/mL | MIC [1]: 4 µg/mL | MIC [10]: 8 µg/mL | MIC ([2]; agar dilution, S. aureus Col8A (Meth^S) (lac^-)): < 0.25 µg/mL | MIC [11]: 16 µg/mL | MIC [12]: > 32 µg/mL | MIC [13]: 16 µg/mL | MIC [14]: 16 µg/mL
